In ChEMBL document CHEMBL3232945 (Eur J Med Chem, 2014):

What was measured:
Rattus norvegicus [1] = test: Toxicity in anaesthetized-Wistar rat assessed as QRS ECG interval at 40 mg/kg, ip after 30 mins (reference value: 19.9 +/- 1.393 ms); assay type: organism-based; set-up: dose 40 mg/kg, route intraperitoneal; conditions: in vivo, 0.5 h
Rattus norvegicus [2] = test: Toxicity in anaesthetized-Wistar rat assessed as P-Q ECG interval at 40 mg/kg, ip after 60 mins (reference value: […] +/- 0.924 ms); assay type: organism-based; set-up: dose 40 mg/kg, route intraperitoneal; conditions: in vivo, 1 h
Rattus norvegicus [3] = test: Toxicity in anaesthetized-Wistar rat assessed as QRS ECG interval at 40 mg/kg, ip after 45 mins (reference value: 20.2 +/- 1.348 ms); assay type: organism-based; set-up: dose 40 mg/kg, route intraperitoneal; conditions: in vivo, 0.75 h
Rattus norvegicus [4] = test: Antiarrhythmic activity in barium chloride-induced Wistar rat assessed as increase in appearance time of arrhythmia at 40 mg/kg, ip administered 60 mins before barium chloride challenge (reference value: 129.4 +/- 4.373 sec); assay type: functional, Heart; conditions: route intraperitoneal
Rattus norvegicus [5] = test: Toxicity in […] normotensive Wistar rat assessed as mean arterial pressure at 40 mg/kg, ip after 60 mins (reference value: 95.07 +/- 1.973 mmHg); assay type: organism-based, Artery; set-up: dose 40 mg/kg, route intraperitoneal; conditions: in vivo, 1 h
Rattus norvegicus [6] = test: Toxicity in anaesthetized-Wistar rat assessed as P-Q ECG interval at 40 mg/kg, ip after 45 mins (reference value: 52.5 +/- 0.780 ms); assay type: organism-based; set-up: dose 40 mg/kg, route intraperitoneal; conditions: in vivo, 0.75 h
Rattus norvegicus [7] = test: Toxicity in anaesthetized-Wistar rat assessed as Q-T ECG interval at 40 mg/kg, ip after 30 mins (reference value: 78.3 +/- 0.860 ms); assay type: organism-based; set-up: dose 40 mg/kg, route intraperitoneal; conditions: in vivo, 0.5 h
Rattus norvegicus [8] = test: Toxicity in […] normotensive Wistar rat assessed as mean arterial pressure at 40 mg/kg, ip after 15 mins (reference value: 93.81 +/- 1.543 mmHg); assay type: organism-based, Artery; set-up: dose 40 mg/kg, route intraperitoneal; conditions: in vivo, 0.25 h
Rattus norvegicus [9] = test: Toxicity in anaesthetized-Wistar rat assessed as QRS ECG interval at 40 mg/kg, ip measured immediately at 0 min (reference value: 19.6 +/- 1.142 ms); assay type: organism-based; set-up: dose 40 mg/kg, route intraperitoneal; conditions: in vivo, 0 h
Rattus norvegicus [10] = test: Toxicity in anaesthetized-Wistar rat assessed as Q-T ECG interval at 40 mg/kg, ip measured immediately at 0 min (reference value: 78.8 +/- 1.030 ms); assay type: organism-based; set-up: dose 40 mg/kg, route intraperitoneal; conditions: in vivo, 0 h
Rattus norvegicus [11] = test: Toxicity in […] normotensive Wistar rat assessed as mean arterial pressure at 40 mg/kg, ip after 45 mins (reference value: 94.83 +/- 0.943 mmHg); assay type: organism-based, Artery; set-up: dose 40 mg/kg, route intraperitoneal; conditions: in vivo, 0.75 h
Rattus norvegicus [12] = test: Toxicity in […] normotensive Wistar rat assessed as mean arterial pressure at 40 mg/kg, ip after 30 mins (reference value: 94.68 +/- 1.213 mmHg); assay type: organism-based, Artery; set-up: dose 40 mg/kg, route intraperitoneal; conditions: in vivo, 0.5 h
Rattus norvegicus [13] = test: Antihypertensive activity in Wistar rat assessed as mean arterial pressure at 40 mg/kg, ip after 60 mins (reference value: 195.11 +/- 0.531 mmHg); assay type: functional, Artery; conditions: route intraperitoneal
Rattus norvegicus [14] = test: Antihypertensive activity in Wistar rat assessed as mean arterial pressure at 40 mg/kg, ip measured immediately at 0 min (reference value: 194.08 +/- 1.962 mmHg); assay type: functional, Artery; conditions: route intraperitoneal
Rattus norvegicus [15] = test: Antihypertensive activity in Wistar rat assessed as mean arterial pressure at 40 mg/kg, ip after 15 mins (reference value: 195.68 +/- 1.623 mmHg); assay type: functional, Artery; conditions: route intraperitoneal
Rattus norvegicus [16] = test: Toxicity in anesthetized-normotensive Wistar rat assessed as heart rate at 40 mg/kg, ip after 60 mins (reference value: 314.96 +/- 9.442 bpm); assay type: organism-based; set-up: dose 40 mg/kg, route intraperitoneal; conditions: in vivo, 1 h
Rattus norvegicus [17] = test: Toxicity in anesthetized-normotensive Wistar rat assessed as heart rate at 40 mg/kg, ip after 45 mins (reference value: 316.82 +/- 8.452 bpm); assay type: organism-based; set-up: dose 40 mg/kg, route intraperitoneal; conditions: in vivo, 0.75 h
Rattus norvegicus [18] = test: Toxicity in anaesthetized-Wistar rat assessed as QRS ECG interval at 40 mg/kg, ip after 15 mins (reference value: 18.9 +/- 1.563 ms); assay type: organism-based; set-up: dose 40 mg/kg, route intraperitoneal; conditions: in vivo, 0.25 h
Rattus norvegicus [19] = test: Toxicity in anesthetized-normotensive Wistar rat assessed as heart rate at 40 mg/kg, ip after 15 mins (reference value: 313.93 +/- 9.912 bpm); assay type: organism-based; set-up: dose 40 mg/kg, route intraperitoneal; conditions: in vivo, 0.25 h
Rattus norvegicus [20] = test: Toxicity in […] normotensive Wistar rat assessed as mean arterial pressure at 40 mg/kg, ip measured immediately at 0 min (reference value: 94.21 +/- 2.065 mmHg); assay type: organism-based, Artery; set-up: dose 40 mg/kg, route intraperitoneal; conditions: in vivo, 0 h
Rattus norvegicus [21] = test: Antihypertensive activity in Wistar rat assessed as mean arterial pressure at 40 mg/kg, ip after 45 mins (reference value: 193.96 +/- 0.865 mmHg); assay type: functional, Artery; conditions: route intraperitoneal
Rattus norvegicus [22] = test: Toxicity in anesthetized-normotensive Wistar rat assessed as heart rate at 40 mg/kg, ip measured immediately at 0 min (reference value: 316.62 +/- 9.643 bpm); assay type: organism-based; set-up: dose 40 mg/kg, route intraperitoneal; conditions: in vivo, 0 h
Rattus norvegicus [23] = test: Antihypertensive activity in Wistar rat assessed as mean arterial pressure at 40 mg/kg, ip after 30 mins (reference value: 194.72 +/- 1.002 mmHg); assay type: functional, Artery; conditions: route intraperitoneal
Rattus norvegicus [24] = test: Toxicity in anaesthetized-Wistar rat assessed as Q-T ECG interval at 40 mg/kg, ip after 60 mins (reference value: 79.7 +/- 0.965 ms); assay type: organism-based; set-up: dose 40 mg/kg, route intraperitoneal; conditions: in vivo, 1 h
Rattus norvegicus [25] = test: Toxicity in anaesthetized-Wistar rat assessed as QRS ECG interval at 40 mg/kg, ip after 60 mins (reference value: 19.3 +/- 0.873 ms); assay type: organism-based; set-up: dose 40 mg/kg, route intraperitoneal; conditions: in vivo, 1 h
Rattus norvegicus [26] = test: Toxicity in anaesthetized-Wistar rat assessed as P-Q ECG interval at 40 mg/kg, ip measured immediately at 0 min (reference value: 52.4 +/- 0.927 ms); assay type: organism-based; set-up: dose 40 mg/kg, route intraperitoneal; conditions: in vivo, 0 h
Rattus norvegicus [27] = test: Toxicity in anaesthetized-Wistar rat assessed as P-Q ECG interval at 40 mg/kg, ip after 15 mins (reference value: 52.2 +/- 1.158 ms); assay type: organism-based; set-up: dose 40 mg/kg, route intraperitoneal; conditions: in vivo, 0.25 h
Rattus norvegicus [28] = test: Toxicity in anaesthetized-Wistar rat assessed as P-Q ECG interval at 40 mg/kg, ip after 30 mins (reference value: […] +/- 0.927 ms); assay type: organism-based; set-up: dose 40 mg/kg, route intraperitoneal; conditions: in vivo, 0.5 h
Rattus norvegicus [29] = test: Toxicity in anaesthetized-Wistar rat assessed as Q-T ECG interval at 40 mg/kg, ip after 15 mins (reference value: 79.4 +/- 1.270 ms); assay type: organism-based; set-up: dose 40 mg/kg, route intraperitoneal; conditions: in vivo, 0.25 h
Rattus norvegicus [30] = test: Antiarrhythmic activity in barium chloride-induced Wistar rat assessed as increase in mortality time at 40 mg/kg, ip administered 60 mins before barium chloride challenge (reference value: 682.8 +/- 9.656 secs); assay type: functional, Heart; conditions: route intraperitoneal
Rattus norvegicus [31] = test: Toxicity in anesthetized-normotensive Wistar rat assessed as heart rate at 40 mg/kg, ip after 30 mins (reference value: 317.68 +/- 7.631 bpm); assay type: organism-based; set-up: dose 40 mg/kg, route intraperitoneal; conditions: in vivo, 0.5 h

| Structure (SMILES) | Activity (Rattus norvegicus [1]) | Activity (Rattus norvegicus [2]) | Activity (Rattus norvegicus [3]) | Time (Rattus norvegicus [4]) | Activity (Rattus norvegicus [5]) | Activity (Rattus norvegicus [6]) | Activity (Rattus norvegicus [7]) | Activity (Rattus norvegicus [8]) | Activity (Rattus norvegicus [9]) | Activity (Rattus norvegicus [10]) | Activity (Rattus norvegicus [11]) | Activity (Rattus norvegicus [12]) | Activity (Rattus norvegicus [13]) | Activity (Rattus norvegicus [14]) | Activity (Rattus norvegicus [15]) | Activity (Rattus norvegicus [16]) | Activity (Rattus norvegicus [17]) | Activity (Rattus norvegicus [18]) | Activity (Rattus norvegicus [19]) | Activity (Rattus norvegicus [20]) | also measured |
| --- | --- | --- | --- | --- | --- | --- | --- | --- | --- | --- | --- | --- | --- | --- | --- | --- | --- | --- | --- | --- | --- |
| CN1CCN(CC(O)CN2C(=O)/C(=C\c3ccccc3)S/C2=N\c2ccccc2)CC1 (stereo not drawn) | 23.2 ms | 55.6 min | 23.6 min | 349.7 s | 74.63 mmHg | 54.9 min | 75.2 min | 79.37 mmHg | 22.4 min | 74.5 min | 64.51 mmHg | 63.43 mmHg | 162.19 mmHg | 196.43 mmHg | 182.76 mmHg | 302.28 bpm | 283.56 bpm | 22.6 min | 290.24 bpm | 91.93 mmHg | Activity (Rattus norvegicus [21]): 134.44 mmHg; Activity (Rattus norvegicus [22]): 305.65 bpm; Activity (Rattus norvegicus [23]): 157.99 mmHg; Activity (Rattus norvegicus [24]): 75.6 ms; Activity (Rattus norvegicus [25]): 24 min; Activity (Rattus norvegicus [26]): 53 ms; Activity (Rattus norvegicus [27]): 53.2 min; Activity (Rattus norvegicus [28]): 54.4 min; Activity (Rattus norvegicus [29]): 74.8 min; Time (Rattus norvegicus [30]): 1276 s; Activity (Rattus norvegicus [31]): 256.32 bpm |
| O=C1/C(=C\c2ccccc2)S/C(=N\c2ccccc2)N1CC(O)CN1CCN(Cc2ccccc2)CC1 (stereo not drawn) | 23.8 ms | 52.7 min | 23.1 min | 296.9 s | 85.44 mmHg | 51.3 min | 73.2 min | 92.1 mmHg | 23.4 min | 74.3 min | 72.57 mmHg | 78.19 mmHg | 179.51 mmHg | 194.51 mmHg | 179.02 mmHg | 312.21 bpm | 298.21 bpm | 23.2 min | 312.34 bpm | 95.09 mmHg | Activity (Rattus norvegicus [21]): 166.41 mmHg; Activity (Rattus norvegicus [22]): 333.62 bpm; Activity (Rattus norvegicus [23]): 160.63 mmHg; Activity (Rattus norvegicus [24]): 74.2 ms; Activity (Rattus norvegicus [25]): 23.7 min; Activity (Rattus norvegicus [26]): 49.8 ms; Activity (Rattus norvegicus [27]): 50.4 min; Activity (Rattus norvegicus [28]): 50.9 min; Activity (Rattus norvegicus [29]): 74.9 min; Time (Rattus norvegicus [30]): 986.7 s; Activity (Rattus norvegicus [31]): 283.52 bpm |
| O=C1/C(=C\c2ccccc2)S/C(=N\c2ccccc2)N1CC(O)CN1CCCC1 (stereo not drawn) | 22.5 ms | 52.8 min | 21.1 min | 285.3 s | 73.12 mmHg | 53.3 min | 72.6 min | 84.63 mmHg | 20.5 min | 70.6 min | 69.69 mmHg | 74.76 mmHg | 177.56 mmHg | 196.1 mmHg | 165.01 mmHg | 309.32 bpm | 287.15 bpm | 21.3 min | 298.54 bpm | 93.02 mmHg | Activity (Rattus norvegicus [21]): 149.39 mmHg; Activity (Rattus norvegicus [22]): 318.73 bpm; Activity (Rattus norvegicus [23]): 148.37 mmHg; Activity (Rattus norvegicus [24]): 70.9 ms; Activity (Rattus norvegicus [25]): 20.6 min; Activity (Rattus norvegicus [26]): 50.2 ms; Activity (Rattus norvegicus [27]): 51.6 min; Activity (Rattus norvegicus [28]): 54.3 min; Activity (Rattus norvegicus [29]): 71.2 min; Time (Rattus norvegicus [30]): 918.8 s; Activity (Rattus norvegicus [31]): 256.85 bpm |
